Data published in patent US8283342B2, “Napadisylate salt of 5-(2-{[6-(2,2-difluoro-2-phenylethoxy) hexyl]amino}-1-hydroxyethyl)-8-hydroxyquinolin-2(1H)-one as agonist of the β2 adrenergic receptor” (Almirall S.A., priority 2007, dated 2012).

Columns and labels:
[1] = Differential scanning calorimetry (DSC) analysis; assay type: physicochemical; details: equilibrated at 30° C., heated at 10° C./min to 300° C.
Procedure: The differential scanning calorimetry (DSC) analysis was obtained using a DSC-821 Mettler-Toledo, serial number 5117423874. Samples were weighed into an aluminium pan, an aluminium lid placed on top of the sample and compressed with a brass rod. Samples were equilibrated at 30° C. and heated at 10° C./min to 300° C. The instrument was calibrated using indium and zinc standards.

[2] = Thermogravimetric (TGA) analysis; assay type: physicochemical
Procedure: The thermogravimetric (TGA) analysis was obtained using a TGA-SDTA-851 Mettler-Toledo, serial number 5118408555. Samples were placed into a tared aluminium pan and then positioned on a platinum crucible. Samples were heated from 30° C. at 10° C./min to 350° C. The instrument was calibrated using indium and aluminium standards.

O=S(=O)(O)c1cccc2c(S(=O)(=O)O)cccc12.O=c1ccc2c([C@@H](O)CNCCCCCCOCC(F)(F)c3ccccc3)ccc(O)c2[nH]1.O=c1ccc2c([C@@H](O)CNCCCCCCOCC(F)(F)c3ccccc3)ccc(O)c2[nH]1 [5-(-2-(6-(2,2-Difluoro-2-phenylethoxy)hexylamino)-1(R)-hydroxyethyl)-8-hydroxyquinolin-2(1H)-one heminapadisylate]
stability (no changes prior to the melting point range; no conversion into other polymorphs, no decomposition) [1]: high stability
weight loss due to the decomposition of the sample ([2]; from approximately 200° C. to 220° C., heated from 30° C. at 10° C./min to 350° C.): 3.1 % w/w
hygroscopicity (no solvent/water release) ([2]; prior to 200° C., in particular at 80-100° C., no change): lack of hygroscopicity
